Data published in ChEMBL document CHEMBL1136113, “Synthesis and inhibitory activity of ubiquinone-acetogenin hybrid inhibitor with bovine mitochondrial complex I” (Bioorg Med Chem Lett, 2003).
pIC50: −log10 of the molar value.

target: Mitochondrial complex I; NADH oxidoreductase (Bos taurus, UniProt P25708+P52505); assay: Inhibition of complex I activity was determined by NADH oxidase assay using bovine heart submitochondrial particles.; assay type: protein-complex assay
Sequence (P25708 21-464 limits assumed, other chains not shown): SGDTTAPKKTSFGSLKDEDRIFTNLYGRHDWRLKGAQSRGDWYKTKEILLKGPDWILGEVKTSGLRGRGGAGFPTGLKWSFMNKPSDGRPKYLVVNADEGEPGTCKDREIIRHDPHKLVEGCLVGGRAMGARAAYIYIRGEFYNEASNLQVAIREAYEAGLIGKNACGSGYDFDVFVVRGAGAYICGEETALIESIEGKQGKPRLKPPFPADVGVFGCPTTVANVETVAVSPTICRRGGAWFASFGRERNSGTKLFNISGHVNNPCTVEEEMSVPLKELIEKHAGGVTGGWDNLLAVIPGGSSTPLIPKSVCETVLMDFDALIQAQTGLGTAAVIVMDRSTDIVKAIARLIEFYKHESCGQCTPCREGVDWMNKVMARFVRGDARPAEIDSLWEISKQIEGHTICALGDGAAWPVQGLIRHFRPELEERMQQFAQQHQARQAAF

Point of comparison: `CCCCC[C@@H](O)[C@H]1CC[C@H]([C@H]2CC[C@H]([C@H](O)CCCCC)O2)O1`, pIC50 5.35. Against it:
- CCCCCCCCCC[C@@H](O)[C@H]1CC[C@H]([C@H]2CC[C@H]([C@H](O)CCCCCCCCCCCCc3c(C)c(OC)c(OC)c(OC)c3OC)O2)O1 — 1.20 log units higher, 6.55
- CCCCCCCCCC[C@@H](O)[C@H]1CC[C@H]([C@H]2CC[C@H]([C@H](O)CCCCCCCCCCCCC3=C(C)C(=O)C(OC)=C(OC)C3=O)O2)O1 — 3.57 log units higher, 8.92
- CCCCCCCCCC[C@@H](O)[C@@H]1CC[C@@H]([C@@H]2CC[C@@H]([C@H](O)CCCCCCCCCC(O)CC3=CC(C)OC3=O)O2)O1 (stereo not given in full) [BULLATACIN] — 3.70 log units higher, 9.05
- CCCCCCCCCC[C@@H](O)[C@H]1CC[C@H]([C@H]2CC[C@H]([C@H](O)CCCCCCCCCCCCC3=C[C@H](C)OC3=O)O2)O1 [ISODESAACETYLUVARICIN] — 3.70 log units higher, 9.05
